Reference: ChEMBL document CHEMBL5214967, “Natural Product-Inspired Targeted Protein Degraders: Advances and Perspectives” (J Med Chem, 2022)

What was measured:
[1] = target: T1, 3-hydroxy-3-methylglutaryl-coenzyme A reductase (Homo sapiens, UniProt P04035); experiment: Degradation of HMGCR (unknown origin)
T1 sequence (P04035 whole entry): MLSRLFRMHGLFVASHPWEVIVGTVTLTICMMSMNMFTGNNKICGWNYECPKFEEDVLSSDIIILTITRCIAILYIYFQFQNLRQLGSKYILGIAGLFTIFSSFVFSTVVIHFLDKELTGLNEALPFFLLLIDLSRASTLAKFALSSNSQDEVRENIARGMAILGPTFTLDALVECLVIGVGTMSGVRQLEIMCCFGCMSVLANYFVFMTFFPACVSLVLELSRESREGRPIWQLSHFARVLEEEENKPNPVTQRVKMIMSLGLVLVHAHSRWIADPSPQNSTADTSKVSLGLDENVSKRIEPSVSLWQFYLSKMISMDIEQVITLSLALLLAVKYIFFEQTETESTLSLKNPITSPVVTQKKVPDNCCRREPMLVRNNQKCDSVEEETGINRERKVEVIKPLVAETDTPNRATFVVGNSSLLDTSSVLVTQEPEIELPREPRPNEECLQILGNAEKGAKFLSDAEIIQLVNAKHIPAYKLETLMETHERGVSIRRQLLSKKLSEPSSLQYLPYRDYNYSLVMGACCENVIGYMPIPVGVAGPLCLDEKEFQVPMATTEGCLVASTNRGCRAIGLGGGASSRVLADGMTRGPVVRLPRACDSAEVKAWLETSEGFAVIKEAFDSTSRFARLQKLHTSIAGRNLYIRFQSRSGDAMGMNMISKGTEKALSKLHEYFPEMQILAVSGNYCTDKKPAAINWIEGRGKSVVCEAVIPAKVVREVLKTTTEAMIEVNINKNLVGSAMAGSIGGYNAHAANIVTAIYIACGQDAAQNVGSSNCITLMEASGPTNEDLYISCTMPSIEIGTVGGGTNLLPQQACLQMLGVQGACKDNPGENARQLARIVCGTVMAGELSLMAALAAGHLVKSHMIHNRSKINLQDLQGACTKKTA

[2] = Degradation of ER in human MCF7 cells; assay type: cell-based
[3] = target: Cyclin-dependent kinase 9 (Homo sapiens, UniProt P50750); experiment: Inhibition of CDK9 (unknown origin) incubated for 1 hr by fluorescent polarisation based assay
MCF7 = experiment: cells; settings: Homo sapiens, MCF7, 72 h
Description: Antiproliferative activity against human MCF7 cells incubated for 72 hrs by MTT assay

HeLa = experiment: Cytotoxicity against human HeLa cells incubated for 72 hrs by CCK-8 assay; assay type: functional, cell-based
HFF-1 = experiment: Cytotoxicity against human HFF-1 cells incubated for 72 hrs by CCK-8 assay; assay type: functional, cell-based; settings: HFF-1, 72 h
[4] = target: T1, 3-hydroxy-3-methylglutaryl-coenzyme A reductase; experiment: Inhibition of HMGCR (unknown origin)
[5] = target: von Hippel-Lindau disease tumor suppressor/3-hydroxy-3-methylglutaryl-coenzyme A reductase (Homo sapiens, UniProt P04035+P40337); experiment: PROTAC activity at VHL/HMGCR in human HepG2 cells assessed as degradation of HMGCR measured at 1 uM after 16 hrs relative to control; assay type: cell-based
[6] = target: E3 ubiquitin-protein ligase RNF114 (Homo sapiens, UniProt Q9Y508); experiment: Inhibition of RNF114 (unknown origin)
[7] = target: E3 ubiquitin-protein ligase RNF114/Bromodomain-containing protein 4 (Homo sapiens, UniProt O60885+Q9Y508); experiment: PROTAC activity at RNF114/BRD4 (unknown origin) assessed as degradation of BRD4 incubated for 30 mins SDS-PAGE based fluorescence analysis
Protein cereblon/Basigin = Protein cereblon/Basigin (Homo sapiens, UniProt P35613+Q96SW2); experiment: PROTAC activity at CRBN/CD147 (unknown origin) assessed as degradation of CD147; assay type: protein assay
SK-MEL-5 = experiment: In vivo antitumor activity against human SK-MEL-5 cells xenografted in BALB/c nude mouse administered intraperitoneally every 2 days for 17 days; assay type: functional, organism-based
HT-29 = experiment: Cytotoxicity against human HT-29 cells incubated for 72 hrs by CCK-8 assay; assay type: functional, cell-based; settings: HT-29, 72 h

Chain of Cyclin-dependent kinase 9 (P50750 whole entry): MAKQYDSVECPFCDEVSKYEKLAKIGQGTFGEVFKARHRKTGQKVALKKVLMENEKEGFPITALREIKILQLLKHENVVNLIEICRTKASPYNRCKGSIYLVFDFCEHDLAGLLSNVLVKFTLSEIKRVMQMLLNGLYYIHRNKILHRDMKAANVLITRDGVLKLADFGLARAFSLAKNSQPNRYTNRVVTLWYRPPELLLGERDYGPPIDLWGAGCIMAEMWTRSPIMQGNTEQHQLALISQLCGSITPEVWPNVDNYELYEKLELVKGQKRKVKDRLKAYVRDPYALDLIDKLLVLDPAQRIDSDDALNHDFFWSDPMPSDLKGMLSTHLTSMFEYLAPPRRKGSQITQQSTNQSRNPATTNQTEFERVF
Chain of E3 ubiquitin-protein ligase RNF114 (Q9Y508 whole entry): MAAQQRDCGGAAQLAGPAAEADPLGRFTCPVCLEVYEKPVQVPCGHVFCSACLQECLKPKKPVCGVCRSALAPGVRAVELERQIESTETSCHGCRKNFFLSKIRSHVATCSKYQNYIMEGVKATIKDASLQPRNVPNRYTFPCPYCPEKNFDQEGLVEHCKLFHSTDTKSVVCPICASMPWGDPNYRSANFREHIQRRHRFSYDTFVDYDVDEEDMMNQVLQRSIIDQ
Chain of E3 ubiquitin-protein ligase RNF114/Bromodomain-containing protein 4 (Q9Y508 whole entry, looked up, other chains not shown): as the sequence (Q9Y508 whole entry) above
Chain of Protein cereblon/Basigin (P35613 whole entry): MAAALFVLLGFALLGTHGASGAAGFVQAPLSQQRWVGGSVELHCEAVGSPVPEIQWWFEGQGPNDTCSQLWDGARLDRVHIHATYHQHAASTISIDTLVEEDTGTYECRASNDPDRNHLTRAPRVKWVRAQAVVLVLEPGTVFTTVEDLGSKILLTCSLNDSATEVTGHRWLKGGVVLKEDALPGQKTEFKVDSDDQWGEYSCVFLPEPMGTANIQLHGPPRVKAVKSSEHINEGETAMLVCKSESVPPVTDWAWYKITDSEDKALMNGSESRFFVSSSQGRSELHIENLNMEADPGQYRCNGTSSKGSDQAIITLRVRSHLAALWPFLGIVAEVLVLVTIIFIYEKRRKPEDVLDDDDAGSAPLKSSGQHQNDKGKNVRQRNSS
Chain of Protein cereblon/Basigin (Q96SW2 whole entry): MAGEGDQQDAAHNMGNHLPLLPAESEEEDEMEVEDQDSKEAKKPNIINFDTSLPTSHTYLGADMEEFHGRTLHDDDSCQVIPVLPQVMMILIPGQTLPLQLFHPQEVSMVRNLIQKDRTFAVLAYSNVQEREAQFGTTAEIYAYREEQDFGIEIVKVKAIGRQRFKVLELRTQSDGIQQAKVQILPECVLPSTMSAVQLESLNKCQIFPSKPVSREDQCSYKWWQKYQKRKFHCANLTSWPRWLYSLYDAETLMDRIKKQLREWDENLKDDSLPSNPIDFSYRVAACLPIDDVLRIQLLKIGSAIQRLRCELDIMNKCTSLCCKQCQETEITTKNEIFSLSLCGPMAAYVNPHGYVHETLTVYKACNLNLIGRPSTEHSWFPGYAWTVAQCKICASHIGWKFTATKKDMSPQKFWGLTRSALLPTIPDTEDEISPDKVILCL
Chain of von Hippel-Lindau disease tumor suppressor/3-hydroxy-3-methylglutaryl-coenzyme A reductase (P40337 whole entry, looked up, one chain of several): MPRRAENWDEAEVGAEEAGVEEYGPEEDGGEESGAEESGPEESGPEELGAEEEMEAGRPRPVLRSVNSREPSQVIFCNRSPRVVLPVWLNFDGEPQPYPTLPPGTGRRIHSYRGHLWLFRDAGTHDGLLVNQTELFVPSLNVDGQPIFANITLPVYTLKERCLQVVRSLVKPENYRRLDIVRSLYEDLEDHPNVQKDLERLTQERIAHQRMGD

CC(=O)N1N=CC2C[C@@]3(C)C(=CC[C@H]4[C@@H]5CC[C@H]([C@H](C)CCC(=O)N6CCOCC6)[C@@]5(C)CC[C@@H]43)C(C)(C)C21 (some centres undefined)
DC50 [1]: 220 nM

CC1=CC(=O)[C@H]2/C(C=O)=C\C[C@H]3[C@@H]([C@@H](C)/C=C\C=C/C(=O)OCCOCCOCCOC(=O)CC45CC6CC(CC(C6)C4)C5)CC[C@]3(C)C[C@H]12
DC50 [2]: 1000 nM

O=C1CCC(N2C(=O)c3cccc(NC(=O)CCCCCCCn4cc(COc5c(O)cc(O)c6c(=O)cc(-c7ccccc7)oc56)nn4)c3C2=O)C(=O)N1 (centres undefined)
IC50 [3]: 523 nM | IC50 (MCF7): 17 nM

Cc1ncsc1-c1ccc([C@H](C)NC(=O)[C@@H]2CC(OC(=O)CCCCn3cc(CNC(=O)CC[C@H](NC(=O)c4ccc(NCc5cnc6[nH]c(N)nc(=O)c6n5)cc4)C(=O)O)nn3)CN2C(=O)[C@@H](NC(=O)COCCCOCCNC(=O)C[C@@H]2N=C(c3ccc(Cl)cc3)c3c(sc(C)c3C)-n3c(C)nnc32)C(C)(C)C)cc1 (some centres undefined)
IC50 (HeLa): 246 nM | IC50 (HFF-1): > 10000 nM

COc1c(O)cc(O)c2c(=O)cc(-c3ccccc3)oc12 [WOGONIN]
IC50 (MCF7): 30 nM

Cc1ncsc1-c1ccc(CNC(=O)[C@@H]2C[C@@H](O)CN2C(=O)[C@H](NC(=O)CCCCCCCCCCNC(=O)OC2C[C@@H](C)C=C3C=C[C@H](C)[C@H](CC[C@@H]4C[C@@H](O)CC(=O)O4)[C@H]32)C(C)(C)C)cc1 (some centres undefined)
IC50 [4]: 1300 nM | Emax [5]: 56%

COC(=O)C[C@H]1[C@]2(C)C3=C(C)C(c4ccoc4-c4ccc(C(=O)NCCCNC(=O)C[C@@H]5N=C(c6ccc(Cl)cc6)c6c(sc(C)c6C)-n6c(C)nnc65)cc4)C[C@H]3C[C@@H]2[C@@H]2OC(=O)[C@]3(C)C=CC(=O)[C@@]1(C)[C@@H]23 (some centres undefined)
IC50 [6]: 240 nM | DC50 [7]: 10 nM

COC(=O)C1=CC[C@]23CC[C@H]([C@@]2(OC(C)=O)CC1)[C@](C)(/C=C/C=C(\C)C(=O)NCCNc1cccc2c1C(=O)N(C1CCC(=O)NC1=O)C2=O)OC3=O (some centres undefined)
IC50 (Protein cereblon/Basigin): 6720 nM | IC50 (SK-MEL-5): 6230 nM

Cc1ncsc1-c1ccc([C@H](C)NC(=O)[C@@H]2CC(OC(=O)CCCCn3cc(CNC(=O)CC[C@H](NC(=O)c4ccc(NCc5cnc6[nH]c(N)nc(=O)c6n5)cc4)C(=O)O)nn3)CN2C(=O)[C@H](NC(=O)CCCCCCCCCCNCCCONC(=O)c2ccc(F)c(F)c2Nc2ccc(I)cc2F)C(C)(C)C)cc1 (some centres undefined)
IC50 (HT-29): 436 nM
